In PubChem BioAssay AID1919005 (Molecular Pharmacology Branch, DTP, NCI, 2023):

Test system: 855422-203-R-J1-PDC complex spheroid growth
Experiment: Anticancer human tumor 855422-203-R-J1-PDC patient-derived bladder carcinoma cell line growth inhibition [AhR]
Settings: for IC50: curve of first compound; for viability, T/C: stronger effect = lower value
Outline: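 Agents were dosed in half-log steps down from roughly clinical Cmax, or from 10 microM where Cmax was unknown, alone and with AhR antagonists. Read-out: percent test/control growth of tumor spheroids containing HUVEC and MSC stromal cells.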

[1] = second compound 0.1 µM, first compound 0.0316 µM
[2] = second compound 0.1 µM, first compound 0.1 µM
[3] = second compound 0.1 µM, first compound 0.316 µM
[4] = second compound 0.1 µM, first compound 1 µM
[5] = second compound 0.316 µM, first compound 0.0316 µM
[6] = second compound 0.316 µM, first compound 0.1 µM
[7] = second compound 0.316 µM, first compound 0.316 µM
[8] = second compound 0.316 µM, first compound 1 µM
[9] = second compound 1 µM, first compound 0.0316 µM
[10] = second compound 1 µM, first compound 0.1 µM
[11] = second compound 1 µM, first compound 0.316 µM
[12] = second compound 1 µM, first compound 1 µM
[13] = second compound 3.16 µM, first compound 0.0316 µM
[14] = second compound 3.16 µM, first compound 0.1 µM
[15] = second compound 3.16 µM, first compound 0.316 µM
[16] = second compound 3.16 µM, first compound 1 µM
[17] = second compound 10 µM, first compound 0.0316 µM
[18] = second compound 10 µM, first compound 0.1 µM
[19] = second compound 10 µM, first compound 0.316 µM
[20] = second compound 10 µM, first compound 1 µM
[21] = second compound 0.1 µM, first compound 3.16 µM
[22] = second compound 0.1 µM, first compound 10 µM
[23] = second compound 0.316 µM, first compound 3.16 µM
[24] = second compound 0.316 µM, first compound 10 µM
[25] = second compound 1 µM, first compound 3.16 µM
[26] = second compound 1 µM, first compound 10 µM
[27] = second compound 3.16 µM, first compound 3.16 µM
[28] = second compound 3.16 µM, first compound 10 µM
[29] = second compound 10 µM, first compound 3.16 µM
[30] = second compound 10 µM, first compound 10 µM
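Note: spheroids exposed to agents for seven days before readout.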
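Throughout, for viability, T/C: percent of DMSO vehicle control luminescence viability.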

Row | IC50 (second compound 0.1 µM) | IC50 (second compound 0.316 µM) | IC50 (second compound 1 µM) | IC50 (second compound 3.16 µM) | IC50 (second compound 10 µM) | Structure (SMILES) | viability, T/C [1] | viability, T/C [2] | viability, T/C [3] | viability, T/C [4] | viability, T/C [5] | viability, T/C [6] | viability, T/C [7] | viability, T/C [8] | viability, T/C [9] | viability, T/C [10] | viability, T/C [11] | viability, T/C [12] | viability, T/C [13] | viability, T/C [14] | viability, T/C [15] | further results
1 | > 1 µM | > 1 µM | > 1 µM | > 1 µM | < 0.00316 µM | Nc1ncn(C2CC(O)C(CO)O2)c(=O)n1 (stereo not given) + Cc1cncc(-c2nc(NCCc3c[nH]c4ccccc34)c3ncn(C(C)C)c3n2)c1 | 88.8% | 86.2% | 82% | 77.5% | 81.9% | 79.8% | 82.5% | 75% | 85.5% | 86.4% | 82.4% | 74.6% | 79.3% | 71.4% | 82% | viability, T/C (second compound 0.1 µM, first compound 0.00316 µM): 99.1%; viability, T/C (second compound 0.1 µM, first compound 0.01 µM): 94.1%; viability, T/C (second compound 0.316 µM, first compound 0.00316 µM): 86.8%; viability, T/C (second compound 0.316 µM, first compound 0.01 µM): 88.5%; viability, T/C (second compound 1 µM, first compound 0.00316 µM): 91.9%; viability, T/C (second compound 1 µM, first compound 0.01 µM): 90%; viability, T/C (second compound 3.16 µM, first compound 0.00316 µM): 79.9%; viability, T/C (second compound 3.16 µM, first compound 0.01 µM): 86.5%; viability, T/C [16]: 69%; viability, T/C (second compound 10 µM, first compound 0.00316 µM): 10.8%; viability, T/C (second compound 10 µM, first compound 0.01 µM): 6.45%; viability, T/C [17]: 2.54%; viability, T/C [18]: 7.37%; viability, T/C [19]: 9.7%; viability, T/C [20]: 7.88%
2 | > 10 µM | > 10 µM | > 10 µM | > 10 µM | < 0.0316 µM | O=C(c1cc(Cc2n[nH]c(=O)c3ccccc23)ccc1F)N1CCN(C(=O)C2CC2)CC1 + Cc1cncc(-c2nc(NCCc3c[nH]c4ccccc34)c3ncn(C(C)C)c3n2)c1 | 106% | 102% | 99.6% | 103% | 102% | 109% | 101% | 93.7% | 98.2% | 93% | 103% | 87.9% | 78.6% | 83.6% | 75.9% | viability, T/C [21]: 108%; viability, T/C [22]: 90.9%; viability, T/C [23]: 101%; viability, T/C [24]: 86.7%; viability, T/C [25]: 94.7%; viability, T/C [26]: 89.5%; viability, T/C [16]: 71.2%; viability, T/C [27]: 89.8%; viability, T/C [28]: 78.6%; viability, T/C [17]: 16.8%; viability, T/C [18]: 12.5%; viability, T/C [19]: 7.7%; viability, T/C [20]: 3.22%; viability, T/C [29]: 6.34%; viability, T/C [30]: 5.85%
3 | > 10 µM | > 10 µM | > 10 µM | > 10 µM | > 10 µM | O=C(c1cc(Cc2n[nH]c(=O)c3ccccc23)ccc1F)N1CCN(C(=O)C2CC2)CC1 + CC(CO)NC(=O)c1cc(-c2ccc(Cl)cc2)nn(-c2cnn(C)c2)c1=O | 105% | 107% | 117% | 110% | 118% | 107% | 110% | 106% | 120% | 115% | 115% | 108% | 107% | 112% | 105% | viability, T/C [21]: 98.8%; viability, T/C [22]: 95.2%; viability, T/C [23]: 105%; viability, T/C [24]: 97.9%; viability, T/C [25]: 113%; viability, T/C [26]: 101%; viability, T/C [16]: 105%; viability, T/C [27]: 96.9%; viability, T/C [28]: 106%; viability, T/C [17]: 109%; viability, T/C [18]: 115%; viability, T/C [19]: 98%; viability, T/C [20]: 97.1%; viability, T/C [29]: 105%; viability, T/C [30]: 102%
